Results from PubChem BioAssay AID2060490 (Molecular Pharmacology Branch, DTP, NCI, 2025).
pIC50: −log10 of the molar value.

System: 885512-296-R-J2-PDC complex spheroid viability
Experiment: Anticancer human tumor 885512-296-R-J2-PDC patient-derived breast carcinoma cell line growth inhibition [GQUAD]
Conditions: for pIC50: curve of first compound; for viability, T/C: stronger effect = lower value
Summary of the method: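 Viability of tumor cells grown as complex spheroids with endothelial and stromal cells, exposed to drug combinations. Top concentration at or near clinical Cmax (else 10 microM), diluted in half-log increments.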

[1] = second compound 0.0316 µM, first compound 0.0316 µM
[2] = second compound 0.0316 µM, first compound 0.1 µM
[3] = second compound 0.0316 µM, first compound 0.316 µM
[4] = second compound 0.0316 µM, first compound 1 µM
[5] = second compound 0.0316 µM, first compound 3.16 µM
[6] = second compound 0.0316 µM, first compound 10 µM
[7] = second compound 0.1 µM, first compound 0.0316 µM
[8] = second compound 0.1 µM, first compound 0.1 µM
[9] = second compound 0.1 µM, first compound 0.316 µM
[10] = second compound 0.1 µM, first compound 1 µM
[11] = second compound 0.1 µM, first compound 3.16 µM
[12] = second compound 0.1 µM, first compound 10 µM
[13] = second compound 0.316 µM, first compound 0.0316 µM
[14] = second compound 0.316 µM, first compound 0.1 µM
[15] = second compound 0.316 µM, first compound 0.316 µM
[16] = second compound 0.316 µM, first compound 1 µM
[17] = second compound 0.316 µM, first compound 3.16 µM
[18] = second compound 0.316 µM, first compound 10 µM
[19] = second compound 1 µM, first compound 0.0316 µM
[20] = second compound 1 µM, first compound 0.1 µM
[21] = second compound 1 µM, first compound 0.316 µM
[22] = second compound 1 µM, first compound 1 µM
[23] = second compound 1 µM, first compound 3.16 µM
[24] = second compound 1 µM, first compound 10 µM
[25] = second compound 3.16 µM, first compound 0.0316 µM
[26] = second compound 3.16 µM, first compound 0.1 µM
[27] = second compound 3.16 µM, first compound 0.316 µM
[28] = second compound 3.16 µM, first compound 1 µM
[29] = second compound 3.16 µM, first compound 3.16 µM
[30] = second compound 3.16 µM, first compound 10 µM
[31] = second compound 10 µM, first compound 0.0316 µM
[32] = second compound 10 µM, first compound 0.1 µM
[33] = second compound 10 µM, first compound 0.316 µM
[34] = second compound 10 µM, first compound 1 µM
[35] = second compound 10 µM, first compound 3.16 µM
[36] = second compound 10 µM, first compound 10 µM
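Further: spheroids exposed to the compounds for one week.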
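Wherever viability, T/C is given: percent of tumor spheroid viability relative to DMSO vehicle control wells.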

C=CCn1c(=O)c2cnc(Nc3ccc(N4CCN(C)CC4)cc3)nc2n1-c1cccc(C(C)(C)O)n1 + CN(C)c1ccc(Nc2c3ccc(NC(=O)CCN4CCCC4)cc3nc3cc(NC(=O)CCN4CCCC4)ccc23)cc1
pIC50 (second compound 0.0316 µM): 6.38
pIC50 (second compound 0.1 µM): 6.51
pIC50 (second compound 0.316 µM): 6.47
pIC50 (second compound 1 µM): 6.34
pIC50 (second compound 3.16 µM): 6.45
pIC50 (second compound 10 µM): > 7.50
viability, T/C [1]: 104%
viability, T/C [2]: 102%
viability, T/C [3]: 62.7%
viability, T/C [4]: 8.77%
viability, T/C [5]: 3.39%
viability, T/C [6]: 2.43%
viability, T/C [7]: 120%
viability, T/C [8]: 98.9%
viability, T/C [9]: 51.7%
viability, T/C [10]: 7.71%
viability, T/C [11]: 3.11%
viability, T/C [12]: 2.74%
viability, T/C [13]: 122%
viability, T/C [14]: 93.5%
viability, T/C [15]: 58%
viability, T/C [16]: 9.28%
viability, T/C [17]: 2.73%
viability, T/C [18]: 2.28%
viability, T/C [19]: 102%
viability, T/C [20]: 103%
viability, T/C [21]: 70.5%
viability, T/C [22]: 8.23%
viability, T/C [23]: 2.54%
viability, T/C [24]: 2.76%
viability, T/C [25]: 105%
viability, T/C [26]: 98.3%
viability, T/C [27]: 55.2%
viability, T/C [28]: 8.19%
viability, T/C [29]: 2.51%
viability, T/C [30]: 2.74%
viability, T/C [31]: 22%
viability, T/C [32]: 22.4%
viability, T/C [33]: 12.2%
viability, T/C [34]: 5.57%
viability, T/C [35]: 1.22%
viability, T/C [36]: 1.46%

CCc1c2c(nc3ccc(O)cc13)-c1cc3c(c(=O)n1C2)COC(=O)[C@]3(O)CC + Cc1[nH]c2ccc(F)cc2c1-c1nc2c3cccnc3c3ncccc3c2[nH]1
pIC50 (second compound 0.0316 µM): > 9.00
pIC50 (second compound 0.1 µM): > 9.00
pIC50 (second compound 0.316 µM): > 9.00
pIC50 (second compound 1 µM): > 9.00
pIC50 (second compound 3.16 µM): > 9.00
pIC50 (second compound 10 µM): > 9.00
viability, T/C (second compound 0.0316 µM, first compound 0.000999 µM): 26.3%
viability, T/C (second compound 0.0316 µM, first compound 0.00316 µM): 9.48%
viability, T/C (second compound 0.0316 µM, first compound 0.00999 µM): 6.06%
viability, T/C [1]: 3.24%
viability, T/C (second compound 0.0316 µM, first compound 0.0999 µM): 2.09%
viability, T/C [3]: 1.42%
viability, T/C (second compound 0.1 µM, first compound 0.000999 µM): 25.8%
viability, T/C (second compound 0.1 µM, first compound 0.00316 µM): 9.37%
viability, T/C (second compound 0.1 µM, first compound 0.00999 µM): 5.76%
viability, T/C [7]: 2.48%
viability, T/C (second compound 0.1 µM, first compound 0.0999 µM): 1.88%
viability, T/C [9]: 1.48%
viability, T/C (second compound 0.316 µM, first compound 0.000999 µM): 28.2%
viability, T/C (second compound 0.316 µM, first compound 0.00316 µM): 9.08%
viability, T/C (second compound 0.316 µM, first compound 0.00999 µM): 4.66%
viability, T/C [13]: 2.27%
viability, T/C (second compound 0.316 µM, first compound 0.0999 µM): 1.56%
viability, T/C [15]: 1.34%
viability, T/C (second compound 1 µM, first compound 0.000999 µM): 26%
viability, T/C (second compound 1 µM, first compound 0.00316 µM): 8.76%
viability, T/C (second compound 1 µM, first compound 0.00999 µM): 2.75%
viability, T/C [19]: 1.69%
viability, T/C (second compound 1 µM, first compound 0.0999 µM): 1.68%
viability, T/C [21]: 1.43%
viability, T/C (second compound 3.16 µM, first compound 0.000999 µM): 3.36%
viability, T/C (second compound 3.16 µM, first compound 0.00316 µM): 2.2%
viability, T/C (second compound 3.16 µM, first compound 0.00999 µM): 2.07%
viability, T/C [25]: 1.56%
viability, T/C (second compound 3.16 µM, first compound 0.0999 µM): 1.71%
viability, T/C [27]: 2.07%
viability, T/C (second compound 10 µM, first compound 0.000999 µM): 1.69%
viability, T/C (second compound 10 µM, first compound 0.00316 µM): 1.34%
viability, T/C (second compound 10 µM, first compound 0.00999 µM): 1.31%
viability, T/C [31]: 1.08%
viability, T/C (second compound 10 µM, first compound 0.0999 µM): 0.89%
viability, T/C [33]: 1.57%

COc1ncnc(C2CC2)c1-c1ncc2cnn(Cc3ccc(-c4nc(C(F)(F)F)cn4C(C)C)cc3)c2n1 + Cc1[nH]c2ccc(F)cc2c1-c1nc2c3cccnc3c3ncccc3c2[nH]1
pIC50 (second compound 0.0316 µM): 6.02
pIC50 (second compound 0.1 µM): 6.18
pIC50 (second compound 0.316 µM): 6.25
pIC50 (second compound 1 µM): 7.03
pIC50 (second compound 3.16 µM): > 7.50
pIC50 (second compound 10 µM): > 7.50
viability, T/C [1]: 89.9%
viability, T/C [2]: 82.6%
viability, T/C [3]: 64.5%
viability, T/C [4]: 52.1%
viability, T/C [5]: 25.1%
viability, T/C [6]: 2.97%
viability, T/C [7]: 104%
viability, T/C [8]: 83.5%
viability, T/C [9]: 66.7%
viability, T/C [10]: 38.7%
viability, T/C [11]: 23.7%
viability, T/C [12]: 2.95%
viability, T/C [13]: 88.5%
viability, T/C [14]: 78.3%
viability, T/C [15]: 60.5%
viability, T/C [16]: 34.5%
viability, T/C [17]: 27.8%
viability, T/C [18]: 2.76%
viability, T/C [19]: 59.2%
viability, T/C [20]: 49.4%
viability, T/C [21]: 37.4%
viability, T/C [22]: 28.5%
viability, T/C [23]: 25.1%
viability, T/C [24]: 2.31%
viability, T/C [25]: 5.23%
viability, T/C [26]: 4.49%
viability, T/C [27]: 2.87%
viability, T/C [28]: 4.14%
viability, T/C [29]: 3.49%
viability, T/C [30]: 0.54%
viability, T/C [31]: 1.44%
viability, T/C [32]: 1.29%
viability, T/C [33]: 1.4%
viability, T/C [34]: 2.23%
viability, T/C [35]: 2.81%
viability, T/C [36]: 0.35%

CC(C)(O)C1CCC(Nc2ccc3ncc(-c4cccc(C(F)(F)F)c4)n3n2)CC1 (stereo not drawn) + Cc1cnc(CNC(=O)c2c(=O)c3ccc(N4CCCN(C)CC4)nc3n3c2sc2ccccc23)cn1
pIC50 (second compound 0.0316 µM): 5.78
pIC50 (second compound 0.1 µM): 5.87
pIC50 (second compound 0.316 µM): > 7.50
pIC50 (second compound 1 µM): > 7.50
pIC50 (second compound 3.16 µM): > 7.50
pIC50 (second compound 10 µM): > 7.50
viability, T/C [1]: 91.5%
viability, T/C [2]: 70.3%
viability, T/C [3]: 85.9%
viability, T/C [4]: 69.8%
viability, T/C [5]: 25.8%
viability, T/C [6]: 25.2%
viability, T/C [7]: 63.4%
viability, T/C [8]: 55.3%
viability, T/C [9]: 52.6%
viability, T/C [10]: 57.6%
viability, T/C [11]: 29.6%
viability, T/C [12]: 24.7%
viability, T/C [13]: 24.4%
viability, T/C [14]: 23.7%
viability, T/C [15]: 25.7%
viability, T/C [16]: 27.1%
viability, T/C [17]: 28.8%
viability, T/C [18]: 20.6%
viability, T/C [19]: 22.9%
viability, T/C [20]: 23.8%
viability, T/C [21]: 29.4%
viability, T/C [22]: 29.9%
viability, T/C [23]: 25.6%
viability, T/C [24]: 11.9%
viability, T/C [25]: 27.7%
viability, T/C [26]: 28%
viability, T/C [27]: 24.5%
viability, T/C [28]: 23.1%
viability, T/C [29]: 0.1%
viability, T/C [30]: 0.36%
viability, T/C [31]: 0.06%
viability, T/C [32]: 0.14%
viability, T/C [33]: 0.19%
viability, T/C [34]: 0.18%
viability, T/C [35]: 0.19%
viability, T/C [36]: 0.2%
